Measured values as given in patent US7501430B2 (ArQule, Inc., priority 2006, dated 2009).

Target: T1, mutant B-RAF (Homo sapiens, UniProt P15056, V600E)
T1 construct: purchased Upstate (Charlottesville, Va.)
Assay: RAF biochemical assay (MEK-1 phosphorylation, anti-phospho MEK1/2 detection)
Settings: for inhibition at 10 µM: read-out: Mutant B-RAF % inhibition; for IC50: read-out: Mutant B-RAF IC50
Summary of the method: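 Detection is by ELISA: after a 30 min room-temperature reaction, plate-captured GST-MEK-1 is probed with anti-phospho MEK1/2, then an AP-tagged secondary antibody with fluorescent Attophos read-out.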

T1 sequence (P15056 whole entry V600E): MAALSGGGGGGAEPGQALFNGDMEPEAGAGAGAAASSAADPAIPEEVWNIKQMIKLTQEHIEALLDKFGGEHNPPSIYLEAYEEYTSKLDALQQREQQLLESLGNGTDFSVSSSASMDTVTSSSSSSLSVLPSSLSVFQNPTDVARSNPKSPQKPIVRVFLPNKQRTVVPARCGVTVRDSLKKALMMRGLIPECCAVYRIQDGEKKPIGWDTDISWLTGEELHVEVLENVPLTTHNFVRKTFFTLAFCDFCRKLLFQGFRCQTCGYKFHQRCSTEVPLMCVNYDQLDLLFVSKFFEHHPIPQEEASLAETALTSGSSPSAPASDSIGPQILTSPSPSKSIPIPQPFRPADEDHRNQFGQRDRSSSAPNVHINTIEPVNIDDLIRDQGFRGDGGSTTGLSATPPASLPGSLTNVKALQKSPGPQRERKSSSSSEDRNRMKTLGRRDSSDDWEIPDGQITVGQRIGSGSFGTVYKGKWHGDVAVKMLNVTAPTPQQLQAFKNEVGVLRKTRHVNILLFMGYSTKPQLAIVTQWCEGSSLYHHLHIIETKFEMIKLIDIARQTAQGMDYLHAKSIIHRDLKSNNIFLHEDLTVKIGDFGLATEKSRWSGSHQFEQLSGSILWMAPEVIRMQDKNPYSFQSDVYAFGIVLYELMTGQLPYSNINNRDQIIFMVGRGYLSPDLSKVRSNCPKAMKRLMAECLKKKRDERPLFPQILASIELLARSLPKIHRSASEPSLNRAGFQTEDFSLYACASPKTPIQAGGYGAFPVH

Question: With `Cc1ccccc1-c1nc2occn2c1-c1ccnc(NC2CCNCC2)n1` [Example 304, 4-[6-(2-methylphenyl)imidazo[2,1-b][1,3]oxazol-5-yl]-N-piperidin-4-ylpyrimidin-2-amine] as the compound, how does the inhibition at 10 µM read?
Answer: 56%

Question: For `CC(=O)N1CCC(Nc2nccc(-c3c(-c4ccc(F)cc4Cl)nc4occn34)n2)CC1` [Example 305, N-(1-acetylpiperidin-4-yl)-4-[6-(2-chloro-4-fluorophenyl)imidazo[2,1-b][1,3]oxazol-5-yl]pyrimidin-2-amine], which inhibition at 10 µM is on record?
Answer: 47%

Question: How did the inhibition at 10 µM turn out when `FC(F)(F)c1cccc(-c2nc3occn3c2-c2ccnc(NC3CCNCC3)n2)c1` [Example 306, N-piperidin-4-yl-4-{6-[3-(trifluoromethyl)phenyl]imidazo[2,b][1,3]oxazol-5-yl}pyrimidin-2-amine] was run?
Answer: 32%

Question: For `Clc1ccccc1-c1nc2occn2c1-c1ccnc(NC2CCNCC2)n1` [Example 307, 4-[6-(2-chlorophenyl)imidazo[2,1-b][1,3]oxazol-5-yl]-N-piperidin-4-ylpyrimidin-2-amine], which inhibition at 10 µM is on record?
Answer: 55%

Question: How did the inhibition at 10 µM turn out when `Cc1ccccc1-c1nc2occn2c1-c1ccnc(NC2CCN(S(C)(=O)=O)CC2)n1` [Example 308, 4-[6-(2-methylphenyl)imidazo[2,1-b][1,3]oxazol-5-yl]-N-(1-(methylsulfonyl)piperidin-4-yl]pyrimidin-2-amine] was run?
Answer: 45%

Question: Which inhibition at 10 µM does the source give for `CS(=O)(=O)N1CCC(Nc2nccc(-c3c(-c4cccc(C(F)(F)F)c4)nc4occn34)n2)CC1` [Example 309, N-[1-(methylsulfonyl)piperidin-4-yl]-4-{6-(3-(trifluoromethyl)phenyl]imidazo[2,b][1,3]oxazol-5-yl)pyrimidin-2-amine] here?
Answer: 33%

Question: `CC(=O)N1CCC(Nc2nccc(-c3c(-c4ccc(F)cc4F)nc4occn34)n2)CC1` [Example 310, N-(1-acetylpiperidin-4-yl)-4-[6-(2,4-difluorophenyl)imidazo[2,1-b][1,3]oxazol-5-yl]pyrimidin-2-amine] was tested. Which inhibition at 10 µM did it give?
Answer: 33%

Question: How did the inhibition at 10 µM turn out when `CS(=O)(=O)N1CCC(Nc2nccc(-c3c(-c4ccccc4Cl)nc4occn34)n2)CC1` [Example 311, 4-[6-(2-chlorophenyl)imidazo[2,1-b][1,3]oxazol-5-yl]-N-[1-(methylsulfonyl)piperidin-4-yl]pyrimidin-2-amine] was run?
Answer: 61%

Question: With `CS(=O)(=O)N1CCC(Nc2nccc(-c3c(-c4ccc(F)cc4Cl)nc4occn34)n2)CC1` [Example 312, 4-[6-(2-chloro-4-fluorophenyl)imidazo[2,1-b][1,3]oxazol-5-yl]-N-[1-(methylsulfonyl)piperidin-4-yl]pyrimidin-2-amine] as the compound, how does the inhibition at 10 µM read?
Answer: 73%

Question: `COC(=O)c1ccc(S(=O)(=O)N2CCC[C@@H](Nc3nccc(-c4c(-c5cccc(O)c5)nc5sccn45)n3)C2)cc1` [Example 314, methyl 4-{[(3R)-3-({4-[6-(3-hydroxyphenyl)imidazo[2,1-b][1,3]thiazol-5-yl]pyrimidin-2-yl}amino)piperidin-1-yl]sulfonyl}benzoate] was tested. Which IC50 did it give?
Answer: 30 nM

Question: How did the IC50 turn out when `O=S(=O)(C1CC1)N1CCC(Nc2nccc(-c3c(-c4cccc(O)c4)nc4sccn34)n2)CC1` [Example 315, 3-[5-(2-{[1-(cyclopropylsulfonyl)piperidin-4-yl]amino}pyrimidin-4-yl)imidazo[2,1-b][1,3]thiazol-6-yl}phenol] was run?
Answer: 11 nM

Question: `N#Cc1ccc(S(=O)(=O)N2CCC(Nc3nccc(-c4c(-c5cccc(O)c5)nc5occn45)n3)CC2)cc1` [Example 317, 4-{[4-({4-[6-(3-hydroxyphenyl)imidazo[2,1-b][1,3]oxazol-5-yl]pyrimidin-2-yl}amino)piperidin-1-yl]sulfonyl}benzonitrile] was tested. Which IC50 did it give?
Answer: 22 nM

Question: Which IC50 does the source give for `Oc1cccc(-c2nc3sccn3c2-c2ccnc(NC3CCN(CC(O)COc4ccc(Cl)cc4)CC3)n2)c1` (centres unmarked) [Example 318, 3-{5-[2-({1-[3-(4-chlorophenoxy)-2-hydroxypropyl]piperidin-4-yl}amino)pyrimidin-4-yl]imidazo[2,1-b][1,3]thiazol-6-yl}phenol] here?
Answer: 422 nM

Question: With `NC(=O)c1ccc(S(=O)(=O)N2CCC(Nc3nccc(-c4c(-c5cccc(O)c5)nc5occn45)n3)CC2)cc1` [Example 319, 4-{[4-({4-[6-(3-hydroxyphenyl)imidazo[2,1-b][1,3]oxazol-5-yl]pyrimidin-2-yl}amino)piperidin-1-yl]sulfonyl)benzamide] as the compound, how does the IC50 read?
Answer: 18 nM

Question: With `O=S(=O)(c1ccc(Cl)cc1)N1CCC(Nc2nccc(-c3c(-c4cccc(O)c4)nc4occn34)n2)CC1` [Example 321, 3-{5-[2-({1-[(4-chlorophenyl)sulfonyl]piperidin-4-yl}amino)pyrimidin-4-yl]imidazo[2,1-b][1,3]oxazol-6-yl}phenol] as the compound, how does the IC50 read?
Answer: 126 nM

Question: For `O=C(NS(=O)(=O)c1ccc(Cl)cc1)N1CCC(Nc2nccc(-c3c(-c4cccc(O)c4)nc4occn34)n2)CC1` [Example 323, N-[(4-chlorophenyl)sulfonyl]-4-({4-[6-(3-hydroxyphenyl)imidazo[2,1-b][1,3]oxazol-5-yl]pyrimidin-2-yl}amino)piperidine-1-carboxamide], which IC50 is on record?
Answer: 1220 nM

Question: `COc1cccc(-c2nc3occn3c2-c2ccnc(NC3CCN(C(=O)NS(=O)(=O)c4ccc(Cl)cc4)CC3)n2)c1` [Example 324, N-[(4-chlorophenyl)sulfonyl]-4-({4-[6-(3-methoxyphenyl)imidazo[2,1-b][1,3]oxazol-5-yl]pyrimidin-2-yl}amino)piperidine-1-carboxamide] was tested. Which IC50 did it give?
Answer: 4000 nM

Question: With `COc1cccc(-c2nc3sccn3c2-c2ccnc(N[C@@H]3CCCN(S(=O)(=O)C4CC4)C3)n2)c1` [Example 325, N-[(3R)-1-(cyclopropylsulfonyl)piperidin-3-yl]-4-[6-(3-methoxyphenyl)imidazo[2,1-b][1,3]thiazol-5-yl]pyrimidin-2-amine] as the compound, how does the IC50 read?
Answer: 4000 nM

Question: With `COc1cccc(-c2nc3sccn3c2-c2ccnc(NC3CCN(S(C)(=O)=O)CC3)n2)c1` [Example 326, 4-[6-(3-methoxyphenyl)imidazo[2,1-b][1,3]thiazol-5-yl]-N-[1-(methylsulfonyl)piperidin-4-yl]pyrimidin-2-amine] as the compound, how does the IC50 read?
Answer: 4000 nM

Question: With `COc1cccc(-c2nc3sccn3c2-c2ccnc(N[C@@H]3CCCN(C(=O)Nc4ccc(F)cc4)C3)n2)c1` [Example 327, (3R)-N-(4-fluorophenyl)-3-({4-[6-(3-methoxyphenyl)imidazo[2,1-b][1,3]thiazol-5-yl]pyrimidin-2-yl}amino)piperidine-1-carboxamide] as the compound, how does the IC50 read?
Answer: 4000 nM

Question: For `COc1cccc(-c2nc3sccn3c2-c2ccnc(N[C@@H]3CCCN(C(=O)NC4CCCCC4)C3)n2)c1` [Example 328, (3R)-N-cyclohexyl-3-({4-[6-(3-methoxyphenyl)imidazo[2,1-b][1,3]thiazol-5-yl]pyrimidin-2-yl}amino)piperidine-1-carboxamide], which IC50 is on record?
Answer: 4000 nM

Question: For `CCOc1ccc(NC(=O)N2CCC[C@@H](Nc3nccc(-c4c(-c5cccc(OC)c5)nc5sccn45)n3)C2)cc1` [Example 329, (3R)-N-(4-ethoxyphenyl)-3-({4-[6-(3-methoxyphenyl)imidazo[2,1-b][1,3]thiazol-5-yl]pyri-midin-2-yl}amino)piperidine-1-carboxamide], which IC50 is on record?
Answer: 4000 nM

Question: How did the IC50 turn out when `COc1cccc(-c2nc3sccn3c2-c2ccnc(N[C@@H]3CCCN(C(=O)Nc4ccc(SC)cc4)C3)n2)c1` [Example 330, (3R)-3-({4-[6-(3-methoxyphenyl)imidazo[2,1-b][1,3]thiazol-5-yl]pyrimidin-2-yl}amino)-N-[4-(methylthio)phenyl]piperidine-1-carboxamide] was run?
Answer: 4000 nM
